# Test results taken from US12409182B2, “Compositions and uses thereof for treatment of idiopathic preterm birth” (UNIVERSITY OF SOUTH FLORIDA, priority 2020, dated 2025).
# Experiments:
# FKBP51 [1] = experiment: Dexamethasone-induced FKBP51 protein levels in decidual cell monolayers (immunoblot); assay type: cell-based; settings: confluent leukocyte-free term decidual cells, 10^-7 M Dex + compound, 24 h
# Protocol: Three endogenous biochemicals (CC #1, CC #2, CC #3), which exist in human blood/tissues were tested as potential inhibitors of FKBP51 expression/action and confirmed that dexamethasone-induced inhibits FKBP51 expression in decidual cell cultures by all three compounds (FIG. 1).
# [2] = tested on: maternal stress induced pregnant mice; experiment: Maternal restraint stress induced preterm birth and fetal growth restriction in wild-type mice; assay type: in vivo; settings: for litter size: 0.5 mg/kg daily i.p. GD14 to GD18, maternal stress administered mice; for maternal stress induced fetal growth restriction (pup birth weight) / maternal stress induced preterm birth (gestational length): 0.5 mg/kg daily i.p. GD14 to GD18, restraint stress GD8-GD18, vs placebo
# Protocol: (§1) Wild-type adult female mice were mated with adult males by housing 1:1 for 4 h (9.00 am-1.00 pm). Pregnancy was confirmed by observing vaginal plug and the presence of sperm in vaginal smears, which was designated as gestation day (GD) 0 dpc (10.00 am). Time-mated pregnant mice were randomly assigned into non-stress or restraint stress (ST) groups. Restraint stress was administered in three sessions for 1 h using standard restraint chambers starting on GD 8 through GD 18, while the control group was left undisturbed during pregnancy. Before first restrained stress administration, daily intraperitoneal injection of CC #1 (0.5 mg/kg) or CC #2 (0.5 mg/kg) or placebo (PBS) was administered in ST-mice from GD14 to GD 18. The timing of delivery was monitored. Pups weight, litter size, numbers of live and dead pups were recorded.
# as §1, with “Experimental design to test effects of CC #1 and CC #2 administration in maternal stress induced pregnant mice (FIG. 2). Wild-type adult” for “Wild-type adult”, “stress was performed in three” for “stress was administered in three”, “daily intraperitoneal (I.P.) injection of” for “daily intraperitoneal injection of”
# FKBP51 [3] = settings: cultured primary human decidual cells; cited from earlier work
# Srd5a1 deficient mice = Srd5a1 deficient mice (27% delivery rate without treatment); cited from earlier work
# [4] = tested on: Fkbp5+/+ and Fkbp5-/- mice; experiment: Maternal dexamethasone or corticosterone injection, gestational length in Fkbp5+/+ or Fkbp5-/- mice; assay type: in vivo; settings: corticosterone 10 mg/kg s.c. daily E8 through E18, Fkbp5+/+ or Fkbp5-/- mice
# Protocol: Timing of Labor in Fkbp5^+/+ and Fkbp5^−/− Mice. To examine the effect of deletion of the Fkbp5 gene on birth timing, female Fkbp5^+/+ and Fkbp5^−/− mice (6-8 weeks-old) were mated with an adult Fkbp5^+/+ male (12-16 weeks old) by housing 1:1 for 4 h (9.00 am-1.00 pm). Pregnancy was confirmed by the presence of a vaginal plug or sperm in vaginal smears; gestational day (E) was designated at that time (10.00 am) as 0 dpc of pregnancy. The timing of delivery was monitored from E18 through E21 by observing mice every 4 h upon completion of delivery, and gestational length was calculated. Litter size, numbers of live and dead pups were recorded. Additionally, to determine whether there was a relative contribution of fetal genotype on birth timing, female Fkbp5^−/− mice were also mated with an adult male Fkbp5^−/− mice as described above and timing of labor was recorded.
# Maternal Dexamethasone or Corticosterone injection. Dexamethasone-21-phosphate disodium salt (DEX; Sigma-Aldrich, St. Louis, MO) suspended in sterile PBS was administered intraperitoneally at 200 μg/kg. Corticosterone (CORT; Sigma-Aldrich) was dissolved in ethyl alcohol and diluted in PBS before injection and administered subcutaneously at 10 mg/kg. […]
smiles,measurement,setting,value
"CCCCC/C=C/C=C1/C(=O)C=C[C@@H]1C/C=C\CCCC(=O)O [CC #1, 15-deoxy-Δ12,14-prostaglandin J2]",dexamethasone-induced FKBP51 protein levels,FKBP51 [1],inhibits dexamethasone-induced FKBP51 protein levels
same,litter size,[2],did not affect litter size
same,maternal stress induced fetal growth restriction (pup birth weight),[2],prevent maternal stress induced FGR
same,maternal stress induced preterm birth (gestational length),[2],prevent maternal stress induced PTB
"CCCCCCCC/C(=C\CCCCCCCC(=O)O)[N+](=O)[O-] [CC #2, 10-nitro-9E-octadecenoic acid]",dexamethasone-induced FKBP51 protein levels,FKBP51 [1],inhibits dexamethasone-induced FKBP51 protein levels
same,litter size,[2],did not affect litter size
same,maternal stress induced fetal growth restriction (pup birth weight),[2],prevent maternal stress induced FGR
same,maternal stress induced preterm birth (gestational length),[2],prevent maternal stress induced PTB
"CCCCCCCC/C=C(\CCCCCCCC(=O)O)[N+](=O)[O-] [CC #3, 9-nitro-9E-octadecenoic acid]",dexamethasone-induced FKBP51 protein levels,FKBP51 [1],inhibits dexamethasone-induced FKBP51 protein levels
CC[C@@H]1C[C@H]2[C@@H]3CCC4=CC(=O)CC[C@@H]4[C@H]3CC[C@]2(C)[C@H]1C(=O)CO [Organon 2058],FKBP51 levels,FKBP51 [3],minimal stimulatory effects
CN(C)c1ccc([C@H]2C[C@]3(C)[C@@H](CC[C@]3(O)CCCO)[C@@H]3CCC4=CC(=O)CCC4=C32)cc1 [ZK98299],parturition rate,Srd5a1 deficient mice,100%
"C[C@]12C[C@H](O)[C@H]3[C@@H](CCC4=CC(=O)CC[C@@]43C)[C@@H]1CC[C@@H]2C(=O)CO [corticosterone, Corticosterone]",gestational length,[4],did not shorten gestation
CC(=O)O[C@]1(C(C)=O)CC[C@H]2[C@@H]3C[C@H](C)C4=CC(=O)CC[C@]4(C)[C@H]3CC[C@@]21C [medroxyprogesterone acetate],FKBP51 levels,FKBP51 [3],up-regulated
